Results reported in publication PMC3127118, “Characterization of a Deswapped Triple Mutant Bovine Odorant Binding Protein” (2011).

Target: T1, GCC-bOBP (monomeric triple mutant of bovine odorant binding protein) (Bos taurus, UniProt P07435, W64C/INS121G/H155C)
T1 construct: GCC-bOBP, deswapped monomeric triple mutant
T1 sequence (P07435 with tags, fused parts or gaps W64C/INS121G/H155C): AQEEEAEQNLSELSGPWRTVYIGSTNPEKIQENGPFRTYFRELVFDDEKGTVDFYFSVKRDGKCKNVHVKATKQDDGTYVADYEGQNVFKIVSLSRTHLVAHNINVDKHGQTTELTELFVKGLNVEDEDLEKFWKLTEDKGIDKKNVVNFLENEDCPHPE
Experiment: fluorescence titration (direct AMA fluorescence, excitation […] nm; FRET from Trp, excitation […] nm, gave Kd […]), pH […] °C

SMILES: Nc1cccc2cc3ccccc3cc12 [AMA, 1-aminoanthracene]
- Kd: 5 ± 0.2 µM
